Reference: patent publication US9963480B2, “Nucleoside phosphoramidate compound and use thereof” (priority 2013, dated 2018)

Columns and labels:
Format in all cases: cell-based
HCV 1b replicon = assay: Antiviral activity assay in HCV replicon system (Huh7 1b cells, luciferase reporter); details: Hepatitis C virus, Huh-7; Huh7 1b cells with HCV 1b replicon, Bright-Glo luciferase, 72 h; read-out: EC50
From the text: The cell line Huh7 1b, which was provided by WuXi AppTec Co., Ltd. in Shanghai, contained an HCV 1b replicon with a stable Luciferase (Luc) reporter. It was constructed by cloning HCV nonstructural protein gene, neo (G418 resistance) and luciferase reporter gene into the pBR vector through gene recombination technology. Then the vector carrying the HCV replicon was transfected into Huh7 cells, and the transfected Huh7 cells were screened by G418 resistance. The HCV replicon was stably replicated, and the related protein and luciferase were stably expressed in Huh7 cells. The cells model was used for in-vitro screen of anti-HCV compounds. The anti-HCV activity of the compounds was measured by detecting the level of luciferase expression. See Lohmann V, et al. 1999. Replication of subgenomic hepatitis C virus RNAs in a hepatoma cell line. Science. 285(5424):110-113.
The control drug used in this experimental example was the compound of Example 25 in WO 2008/121634 (PCT/US2008/058183), i.e. (S)-2-{[(2R,3R,4R,5R)-5-(2,4-dioxo-3,4-dihydro-2H-pyrimidin-1-yl)-4-fluoro-3-hydr oxy-4-methyl-tetrahydro-furan-2-ylmethoxy]-phenoxy-phosphorylamino}-propanoic acid isopropyl ester. This compound was prepared according to the method described in J. Org. chem, 2011, 76, 8311-8319, and identified by H-NMR and mass spectrometry.
• 2.1 compound preparation: adding each of the compounds listed in Table 2 to 96-well plates using a POD™ 810 Automation Platform (LabCyte Corporation, USA), with 10 μM of each of the compounds as a starting concentration and in duplicate; serially diluting each of the compounds in 3-fold fashion and formulating 10 concentrations, with the final concentration of DMSO being 0.5%; • 2.2 cells preparation: seeding the Huh71b cells into 96-well plates respectively with a volume of 125 μl and 8×10^3 cells/well, and incubating in a 37° C., 5% CO2 incubator for 72 h; • 2.3 detection of cell activity: adding 30 μl per cell of the CellTiter-Fluor™ Reagent, incubating in a 37° C., 5% CO2 incubator for 1 h, measuring the fluorescence signal values with a fluorometer, and using the obtained data for calculation of cytotoxicities of the compounds; • 2.4 Bright-Glo detection: adding 100 μl per well of the Bright-Glo™ Luciferase Substrate, using a chemiluminescence detection system EnVision™ (PerkinElmer, USA) to detect the fluorescence signal values within 5 minutes, and using the obtained data for calculation of potencies of the compounds. • 2.5 data processing: converting the obtained data to a percentage of cell viability (Viability %) using the following formula:
[formula] • CPD: fluorescence signal value of the well added with the compound • ZPE (Zero percent effect): fluorescence signal value of the control well with zero percent effect. • Processing the raw data to calculate a percentage of inhibition (Inhibition %) using the following formula:
[formula] • CPD: fluorescence signal value of the well added with the compound; • HPE (Hundred percent effect): fluorescence signal value of the control well with hundred percent effect; • ZPE (Zero percent effect): fluorescence signal value of the control well with zero percent effect.
The inhibition percentage was processed by the GraphPad Prism software to obtain the corresponding curves and EC50 values.

Huh 7.5.1 cells = assay: Cell viability detection (MTT) in the HCVcc system; details: in vitro HCVcc system
Protocol: (§1) Huh 7.5.1 cells, provided by Shanghai Institute of Materia Medica, Chinese Academy of Sciences.
(§2) • 1) Huh 7.5.1 cells preparation: collecting the Huh7.5.1 cells in logarithmic phase, resuspending in DMEM complete culture medium, seeding into 96-well plates (7×10^3 cells/well), and incubating in a 37° C., 5% CO2 incubator for 24 h; • 2) virus infection: resuspending J399EM viruses in DMEM complete culture medium, adding the virus supernatant (MOI≈0.1) to the above 96-well plates, and washing with PBS after 8 hours of infection; • 3) drug treatment: adding various concentrations of the compounds to the Huh7.5.1 cells infected by J399EM viruses, with each concentration in duplicate; setting the control group with zero percent effect (ZPE) and the control group with hundred percent effect (HPE); replacing the compound with the DMEM complete culture medium containing 0.5% DMSO in ZPE group, and using the cells not infected with viruses in HPE group. • 4) cells incubation: incubating the 96-well plates in a 37° C., 5% CO2 incubator for 72 hr; • 5) anti-HCV activity detection: reading the relative fluorescence units (RFU) of each well by EnVision® Multi label Plate readers after incubation, and calculating the anti-HCV activity of the compounds using the obtained data according to the following formula: Inhibition %=(RFUZPE−RFUCPD)/(RFUZPE−RFUHPE)×100 • wherein RFUZPE represents the relative fluorescence units of the control group with zero percent effect and RFUCPD represents the relative fluorescence units of the corresponding compound group, and RFUHPE represents the relative fluorescence units of the control group with hundred percent effect. • 6) Cell viability detection: adding MTT solution to each well, incubating in a 37° C., 5% CO2 incubator for 4 hr, followed by addition of MTT dissolving solution, reading optical density (OD) of each well at 570 nm by the Multi label Plate readers after 6 hr, calculating the cytotoxicity of the compounds using the obtained data according to the following formula: Viability %=ODCPD/ODZPE×100 • wherein ODZPE represents the optical density of the control group with zero percent effect, and ODCPD represents the optical density of the corresponding compound; • 7) Data processing: processing the Inhibition %, Viability % by GraphPad Prism Software respectively, and obtaining the half maximal effective concentration (EC50) values and half maximal cytotoxic concentration (CC50) values of the compounds against the HVCcc GT2a viruses.

[1] = system: J399EM (HCV genotype 2a) virus; assay: Antiviral activity assay in the cell-culture-derived infectious HCV (HCVcc) system; details: for half maximal effective concentration (EC50) against the HCVcc GT2a viruses, in words: in vitro HCVcc system
Protocol: The compound according to the above example 1 was used in this experiment. The compound was formulated into a 10 mM mother liquid with DMSO, diluted to 500 nM by DMEM complete culture medium containing 0.5% of DMSO, followed by 4-fold dilution successively, and six concentrations were obtained. The positive control was diluted to 10 μM by DMEM complete culture medium containing 0.5% of DMSO, followed by 4-fold successively, and six concentrations were obtained.
as §1
J399EM (HCV genotype 2a) virus, i.e. a full length HCV mutant strain transfected with EGFP (enhanced green fluorescent protein) was used, which had the same infection capacity as the wild type JFH-1. The NS5A-EGFP fusion protein fluorescence was observed directly in infected cells by inserting EGFP coding sequence in the NS5A region. J399EM was provided by Shanghai Institute of Materia Medica, Chinese Academy of Sciences.
as §2

[2] = Cell viability detection (MTT) in the HCVcc system; details: human, Huh 7.5.1 cells infected with J399EM virus (HCVcc); Huh 7.5.1 cells, MTT, 72 hr
Protocol: as §1, §2

Structure (SMILES)	EC50 (HCV 1b replicon)	half maximal cytotoxic concentration (CC50), in words (Huh 7.5.1 cells)	half maximal effective concentration (EC50) against the HCVcc GT2a viruses, in words [1]	CC50 at 72 h [2]	EC50 ([1]; Hepatitis C virus, Huh-7.5.1, 72 h)
CC(C)OC(=O)[C@H](C)NP(=O)(OC[C@H]1O[C@@H](n2ccc(=O)[nH]c2=O)[C@](C)(F)[C@@H]1O)Oc1ccc(-c2nccs2)cc1 (some centres unmarked) [Example 16]	3870 nM	high	low		
CC(C)OC(=O)[C@H](C)NP(=O)(OC[C@H]1O[C@@H](n2ccc(=O)[nH]c2=O)[C@](C)(F)[C@@H]1O)Oc1ccc(-c2csnn2)cc1 (some centres unmarked) [Example 12]	637 nM	high	low		
CC(C)OC(=O)[C@H](C)NP(=O)(OC[C@H]1O[C@@H](n2ccc(=O)[nH]c2=O)[C@](C)(F)[C@@H]1O)Oc1ccc(-c2ccc(C#N)cc2)cc1 (some centres unmarked) [Example 18]	314 nM	high	low		
CC(C)OC(=O)[C@H](C)NP(=O)(OC[C@H]1O[C@@H](n2ccc(=O)[nH]c2=O)[C@](C)(F)[C@@H]1O)Oc1ccc(-c2ccc(F)cc2)cc1 (some centres unmarked) [Example 5]	61 nM	high	low		
CC(C)OC(=O)[C@H](C)NP(=O)(OC[C@H]1O[C@@H](n2ccc(=O)[nH]c2=O)[C@](C)(F)[C@@H]1O)Oc1ccc(-c2cscn2)cc1 (stereo partly drawn) [Example 38, (2S)-2-(((4-(thiazol-4-yl)phenyloxy)(((2R,3R,4R,5R)-5-(2,4-dioxo-3,4-dihydropyrimidin-1(2H)-yl)-4-fluoro-3-hydroxy-4-methyltetrahydrofuran-2-yl)methoxy)phosphoryl)amino)propanoic Acid Isopropyl Ester]	100 nM	high	low		
COc1cc(/C=C/c2ccc(OP(=O)(N[C@@H](C)C(=O)OC(C)C)OC[C@H]3O[C@@H](n4ccc(=O)[nH]c4=O)[C@](C)(F)[C@@H]3O)cc2)cc(OC)c1 (stereo in doubt) [Example 8, (2S)-2-((((E)-4-(3,5-dimethoxyphenylethenyl)phen-1-yloxy)(((2R,3R,4R,5R)-5-(2,4-dioxo-3,4-dihydropyrimidin-1(2H)-yl)-4-fluoro-3-hydroxy-4-methyltetrahydrofuran-2-yl)methoxy)phosphoryl)amino)propanoic Acid Isopropyl Ester]	411 nM				
CC(C)OC(=O)[C@H](C)NP(=O)(OC[C@H]1O[C@@H](n2ccc(=O)[nH]c2=O)[C@](C)(F)[C@@H]1O)Oc1ccccc1 (stereo partly drawn) [Positive control, (S)-2-{[(2R,3R,4R,5R)-5-(2,4-dioxo-3,4-dihydro-2H-pyrimidin-1-yl)-4-fluoro-3-hydroxy-4-methyl-tetrahydro-furan-2-ylmethoxy]-phenoxy-phosphorylamino}-propanoic acid isopropyl ester, reference compound]	117 nM			> 10000 nM	173 nM
CC(C)OC(=O)[C@H](C)NP(=O)(OC[C@H]1O[C@@H](n2ccc(=O)[nH]c2=O)[C@](C)(F)[C@@H]1O)Oc1ccc(-c2ccccc2)c(F)c1 (stereo partly drawn) [Example 28, (2S)-2-(((2-fluoro-[1,1′-biphenyl]-4-yloxy)(((2R,3R,4R,5R)-5-(2,4-dioxo-3,4-dihydropyrimidin-1(2H)-yl)-4-fluoro-3-hydroxy-4-methyltetrahydrofuran-2-yl)methoxy)phosphoryl)amino)propanoic Acid Isopropyl Ester]	123 nM	high	low		
CC(C)OC(=O)[C@H](C)NP(=O)(OC[C@H]1O[C@@H](n2ccc(=O)[nH]c2=O)[C@](C)(F)[C@@H]1O)Oc1ccc(/C=C/c2ccc(F)cc2)cc1 (stereo partly drawn) [Example 19, (2S)-2-(((4-((E)-4-fluorophenylethenylphenyl)-1-yloxy)(((2R,3R,4R,5R)-5-(2,4-dioxo-3,4-dihydropyrimidin-1(2H)-yl)-4-fluoro-3-hydroxy-4-methyltetrahydrofuran-2-yl)methoxy)phosphoryl)amino)propanoic Acid Isopropyl Ester]	303 nM				
CC(C)OC(=O)[C@H](C)NP(=O)(OC[C@H]1O[C@@H](n2ccc(=O)[nH]c2=O)[C@](C)(F)[C@@H]1O)Oc1cccc(-c2ccccc2)c1 (stereo partly drawn) [Example 2, (2S)-2-((([1,1′-biphenyl]-3-yloxy)(((2R,3R,4R,5R)-5-(2,4-dioxo-3,4-dihydropyrimidin-1(2H)-yl)-4-fluoro-3-hydroxy-4-methyltetrahydrofuran-2-yl)methoxy)phosphoryl)amino)propanoic Acid Isopropyl Ester]	105 nM	high	low		
